# According to patent publication US5876676A, “Preservation of blood platelets” (priority 1996, dated 1999):
# Assays:
# [1] = following intracellular microinjection; cited from earlier work
# cells in vitro = details: cited from earlier work
# [2] = tested on: barbed end of actin filaments; experiment: Pyrene-labeled actin assembly (nucleation) assay in detergent lysates of resting and thrombin-activated platelets; type: biochemical, human
# Method: The effect of cell lysates on the rate and extent of pyrene-labeled rabbit skeletal muscle actin was determined as described previously (Hartwig, J., and P. Janmey, 1989 Biochim. Biophys. Acta. 1010:64-71). Suspensions of resting or thrombin-activated cells at concentrations of 1.4×10^8 /ml were permeabilized by the addition of 0.1 volume of 60 mM Pipes, 25 mM Hepes, 10 mM EGTA, 2 mM MgCl2, 0.75% Triton and 42 nM leupeptin, 10 mM benzamidine, and 0.123 mM aprotinin to inhibit proteases (Schliwa, J., et al., 1981 Proc. Natl. Acad. Sci. USA 80:5417-5420). 100 ul of detergent lysate was added to 190 ul of 100 mM KCl, 2 mM MgCl2, 0.5 mM ATP, 0.1 mM EGTA, 0.5 mM dithiothreitol, and 10 mM Tris, pH 7.0 and the polymerization rate assay was started by the addition of monomeric pyrene-labeled rabbit skeletal muscle actin to a final concentration of 2 uM. The relative contribution of nuclei with barbed or pointed ends in the cell lysates was determined by adding 2 uM cytochalasin B to the pyrene nucleation assay system. […] Activity not inhibited by cytochalasin B is considered pointed end assembly. […] To determine if the measured stimulation of actin assembly and its decay with time was due to the growth of pyrene-actin addition onto cellular filaments subject to depolymerization in the diluted lysate, 0.1 uM phalloidin or phallacidin was added to the cell lysates during their preparation to stabilize the filaments. […] However, we also determined that the soluble phase from cells permeabilized with detergent in the presence of EGTA contained calcium dependent nucleation activity. […] The amount of pointed end activity in these soluble extracts was determined by adding a final concentration of 2 uM cytochalasin B to the pyrene-actin assembly assay.
# In reference to Table I, gel-filtered platelets were suspended to a concentration of 1.4×10^8 /ml in platelet buffer, rested for 30 minutes at 37° C., and then treated with or without 1 U/ml of thrombin for 15 s. […] Data are expressed as mean±SD, n=4.
# mice = details: cited from earlier work
# [3] = tested on: pointed end actin nuclei in soluble fraction of platelet lysates; experiment: Calcium-sensitive soluble nucleation activity in supernatants of platelet lysates (pyrene-actin assembly); type: biochemical, human
# Method: The effect of cell lysates on the rate and extent of pyrene-labeled rabbit skeletal muscle actin was determined as described previously (Hartwig, J., and P. Janmey, 1989 Biochim. Biophys. Acta. 1010:64-71). Suspensions of resting or thrombin-activated cells at concentrations of 1.4×10^8 /ml were permeabilized by the addition of 0.1 volume of 60 mM Pipes, 25 mM Hepes, 10 mM EGTA, 2 mM MgCl2, 0.75% Triton and 42 nM leupeptin, 10 mM benzamidine, and 0.123 mM aprotinin to inhibit proteases (Schliwa, J., et al., 1981 Proc. Natl. Acad. Sci. USA 80:5417-5420). 100 ul of detergent lysate was added to 190 ul of 100 mM KCl, 2 mM MgCl2, 0.5 mM ATP, 0.1 mM EGTA, 0.5 mM dithiothreitol, and 10 mM Tris, pH 7.0 and the polymerization rate assay was started by the addition of monomeric pyrene-labeled rabbit skeletal muscle actin to a final concentration of 2 uM. The relative contribution of nuclei with barbed or pointed ends in the cell lysates was determined by adding 2 uM cytochalasin B to the pyrene nucleation assay system. […] Activity not inhibited by cytochalasin B is considered pointed end assembly. The stability of nucleation activity in cell lysates was tested by comparing the stimulatory effect of fresh lysate on actin assembly with lysates allowed to stand for 30 s to 30 min at 37° C. before addition to the assembly assay. To determine if the measured stimulation of actin assembly and its decay with time was due to the growth of pyrene-actin addition onto cellular filaments subject to depolymerization in the diluted lysate, 0.1 uM phalloidin or phallacidin was added to the cell lysates during their preparation to stabilize the filaments. As shown in the results, all nucleation activity present in resting and activated cells was associated with the detergent-insoluble cytoskeleton. However, we also determined that the soluble phase from cells permeabilized with detergent in the presence of EGTA contained calcium dependent nucleation activity. Detergent lysates from resting and thrombin-activated cells (30 s, 1 U/ml) were centrifuged at 10,000 g for 2 min at room temperature in a microcentrifuge. The supernatant was removed and added to the pyrene-based nucleation assay in the presence of 1 mM EGTA or CaCl2. The amount of pointed end activity in these soluble extracts was determined by adding a final concentration of 2 uM cytochalasin B to the pyrene-actin assembly assay.
# In reference to Table II, lysates were prepared from resting thrombin-treated cells with detergent and centrifuged in a Sorvall Microspin 12S at 13,000 rpm for 1 min. Nucleation activity remaining in the supernatant after removal of the cytoskeletal fraction was determined. […] The data are expressed as mean±SD, n=4. […]
# platelets = experiment: Nucleation activity of cytoskeletons from platelets pre-incubated with cytochalasin B (pyrene-actin assembly, Table III); type: cell-based, human; details: for Assembly rate (barbed end): cytochalasin washed out; for Assembly rate (barbed end) / Assembly rate (pointed end): n=4
# Method: The effect of inhibiting barbed end actin assembly in thrombin-activated cells before detergent lysis on the amount of nucleation activity was determined by preincubating resting platelet suspensions with 2 uM cytochalasin B for 5 min. Because it was necessary to wash out the cytochalasin B from some of the cytoskeletons before addition of the cell lysates to the pyrene assembly assay, the cells were first attached to glass coverslips while still in the presence of cytochalasin B. This was accomplished by sedimenting 0.3 ml of cell suspension onto a 12 mm round glass coverslip for 5 min at 250 g. Individual coverslips were removed, treated with thrombin for 15 s in the presence of cytochalasin B, permeabilized with 1× PHEM-Triton buffer containing 2 uM cytochalasin B for 15 s and then washed in PHEM buffer in the presence or absence of cytochalasin B. Coverslips were then immediately assayed for their ability to promote actin filament assembly as previously described by us using glass adherent macrophage cytoskeletons (Hartwig, J., and P. Janmey, 1989 Biochim. Biophys. Acta. 1010:64-71).
# In reference to Table III, resting platelets were incubated with 2 μM cytochalasin B for 5 min, then adhered by centrifugation to 12-mm round glass coverslips coated with polylysine. Cells on the coverslips were exposed to 1 U/ml of thrombin for 30 s in the presence of cytochalasin B and then permeabilized with PHEM-Triton buffer. […] There were 4.2×10^7 platelets per assay. The data are expressed as mean ± SD, n=4. The barbed end assembly rate, initial pointed end addition rate and initial barbed end addition rate were as described in Table I.
# [4] = Activated (thrombin), + 2 μM CB, supernatant, mean±SD, n=4
# [5] = Activated: 2 μM cytochalasin B, 1 U/ml thrombin 30 s
# [6] = Activated: 2 μM cytochalasin B, then 1 U/ml thrombin 30 s
# [7] = Resting platelets incubated with 2 μM cytochalasin B
# [8] = Resting platelets incubated with 2 μM cytochalasin B 5 min
compound,measurement,setting,value
"O=C(O)CN(CC(=O)O)c1ccccc1OCCOc1ccccc1N(CC(=O)O)CC(=O)O [BAPTA, 1,2-bis(2-aminophenoxy) ethane N,N,-N',N'-tetraacetic acid]",Binding to membranes or toxic effects,[1],little or no
C=C1C(C)C2C(Cc3ccccc3)NC(=O)C23OC(=O)C=CC(O)CCCC(C)CC=CC3C1O (stereo not shown) [cytochalasin B],MNTC,cells in vitro; 2 h,≤ 200 µM
same,Non-cytotoxic concentration,cells in vitro; 2 h,up to 100 ug/ml
same,Cytotoxicity on prolonged exposure,cells in vitro,reversible cytotoxicity
same,Pyrene actin assembly onto actin filaments at the barbed end,[2]; 2 uM cytochalasin B,completely inhibited
same,Stimulatory effect of lysates on pyrene-actin assembly rate,"[2]; 2 uM cytochalasin B added to assay, lysates of platelets activated with 1 U/ml thrombin",abolished
same,Effect on nucleation activity of lysates from resting cells,"[2]; 2 uM cytochalasin B added to lysates, resting platelets",only a small effect
same,LD50,mice; intraperitoneal,50 mg/kg
same,Time to clearance from all tissues but liver,mice; intraperitoneal,≤ 24 h
same,Recovery of injected cytochalasin B,mice; within a few minutes following injection,35%
same,Calcium-dependent soluble actin nucleation activity,"[3]; 2 uM cytochalasin B, soluble fraction, thrombin-activated platelets",completely unaffected
same,Assembly Rate,[3]; [4],0.55 ± 0.02 nM/s
same,Pointed nuclei/platelet,[3]; [4],"5,000 ± 250"
same,Subunits added to pointed ends,[3]; [4],1.0 ± 0.05 ×10^10 s^-1
same,Nucleation activity after cytochalasin B treatment of resting cells,"platelets; 2 μM cytochalasin B, resting platelets",did not by itself result in nucleation activity
same,Barbed nuclei/platelet,platelets; [5],380
same,Pointed nuclei/platelet,platelets; [5],"1,980"
same,Subunits added to barbed ends,platelets; [5],3.9e+11 s⁻¹
same,Subunits added to pointed ends,platelets; [5],9.95e+10 s⁻¹
same,Assembly rate (barbed end),platelets; [6],1.59 nM/s
same,Assembly rate (pointed end),platelets; [6],0.55 nM/s
same,Barbed nuclei/platelet,platelets; [7],50
same,Pointed nuclei/platelet,platelets; [7],"1,980"
same,Subunits added to barbed ends,platelets; [7],2e+10 s⁻¹
same,Subunits added to pointed ends,platelets; [7],9.95e+10 s⁻¹
same,Assembly rate (barbed end),platelets; [8],0.18 nM/s
same,Assembly rate (pointed end),platelets; [8],0.55 nM/s
same,"Stimulation of pyrene-actin assembly rate by thrombin-activated, cytochalasin B-treated cytoskeletons compared with resting cells incubated with cytochalasin B","platelets; cytochalasin present during activation, washed away before assay",four-fold
